Values quoted from earlier work as cited in patent US20050107279A1, “Emulsion composition” (Unilever Home & Personal Care USA, Division of Conopco, Inc., priority 2003, published 2005).

Tests used:
[1] = AOT; range as per Sabatini et al. 1996
[2] = hydrophobic liquid
[3] = hydrophobic liquid; remark: listed apart in the source

Log P [2] | solubility in water [3] | SMILES | HLB [1]
 |  | CCCCC(CC)COC(=O)CC(C(=O)OCC(CC)CCCC)S(=O)(=O)[O-].[Na+] (stereo not drawn) [AOT, Aerosol OT] | 10-14.9)
(Log P = 4.7) | Solubility = 7 × 10^−5% | CCCCCCCC [Octane] | 
